Data published in article PMC8956739, “A synthetic lipopeptide targeting top-priority multidrug-resistant Gram-negative pathogens” (Nature Communications, 2022).
In brackets after ≈: the same amount, converted by molar mass. Several values for one entry are separate records, joined by “and”; a condition that tells them apart may be missing. Equal values may be shown once. Read-outs that look alike come from different tables or passages of the source. Residues, ends and D or L forms follow the SMILES beside them.

Tests used:
[1] = tested on: P. aeruginosa FADDI-PA038; test: Neutropenic mouse pneumonia model; assay type: in vivo; details: for bacterial killing in lung at 24 h vs pre-treatment inoculum: 45 mg/kg/d IP in three divided doses every 8 h; for Tukey HSD diff, Pre-treatment minus treated group (Log10 CFU/lung) / Tukey HSD diff, Vehicle minus treated group (Log10 CFU/lung): Fig. a; for Log10 CFU/lung: Figure 3a, individual mice
Protocol: The experimental methodology for the neutropenic mouse lung infection model was previously described in detail. Briefly, Swiss mice (female, 7-week-old, 22–28 g) were rendered neutropenic by intraperitoneal administration of cyclophosphamide, 4 days (150 mg/kg) and 1 day (100 mg/kg) prior to inoculation. Lung infection was established by the administration of 25 µL of early log-phase bacterial suspension (polymyxin-susceptible or resistant isolate, 4 × 10^7 CFU/mL), directly into the lungs via the trachea using a MicroSprayer™ device. Lipopeptide solutions were prepared in sterile saline. At 2 h after inoculation, mice (n = 3 or 4) were administered lipopeptide (45–240 mg/kg/d free base) or control (sterile saline) via an intraperitoneal or subcutaneous bolus injection in three divided doses every 8 h. At 0 or 24 h after the administration of lipopeptide solution or saline (control), animals were euthanized and lungs were collected and homogenized under sterile conditions. Homogenate was filtered and the filtrate was collected, serially diluted in sterile saline, and spread on nutrient agar plates. Agar plates were incubated at 37 °C overnight for bacterial colony counting and the bacterial load of the lung (log10 CFU/lung) in each mouse was calculated. In vivo efficacy was calculated as the difference of the log10 CFU/lung values between the treated mice at 24 h and the pre-treatment (control) at 0 h (Δlog10 CFU/lung = log10 [treated] CFU/lung − log10 [pre-treatment] CFU/lung).

[2] = Plasma pharmacokinetics in mice; assay type: in vivo, mouse
Protocol: (§1) The plasma pharmacokinetic profiles of F365 and polymyxin B were assessed in Swiss mice (female, 7-week-old, 22–28 g) after a single intraperitoneal dose (5 mg/kg, n = 3). Blood samples were collected at various time points over 24 h post dosing for analysis. The plasma pharmacokinetic profiles of F365 (n = 5) and polymyxin B (1 mg/kg, n = 11) in Sprague-Dawley rats (male, 10-week-old, 280 to 330 g) were assessed after intravenous administration (1 min) of F365 and polymyxin B via an indwelling jugular vein cannula. Blood samples (~0.3 mL) were collected via an indwelling carotid artery cannula at various time points over 24 h post dosing. Urine samples were collected at 4 °C using a metabolic cage during the period between 0 and 24 h post dosing. Concentrations of F365 and polymyxin B in plasma and urine samples were determined using LC-MS/MS and pharmacokinetic analysis was conducted using WinNonlin (Pharsight Corp., Mountain View, CA). The ELF pharmacokinetic profiles of F365 and polymyxin B was determined in neutropenic Swiss mice (female, 7-week-old, 22–28 g) after subcutaneous injection (40 mg/kg, n = 3). Bronchoalveolar lavage (BAL) samples were collected at various time points over 24 h post dosing from the cannulated trachea using Milli-Q water as BAL washing media. The average volume of ELF in mice was calculated by the ratio of urea concentrations in plasma and BAL samples. Concentrations of F365 and polymyxin B in plasma and BAL were analyzed by LC-MS/MS. Pharmacokinetic parameters were calculated using a non-compartment model with WinNonlin. For mouse, rat, and human plasma protein binding of F365 and polymyxin B, pooled plasma samples (n = 3) from each species were spiked with F365 or polymyxin B. The spiked plasma samples were subjected to ultrafiltration and the corresponding filtrates were analyzed by LC-MS/MS to determine the concentration of F365 and polymyxin B and the protein binding in each species.

P. aeruginosa PAM1626 = test: Efflux inhibition assay (Leu-Nap hydrolysis), efflux-deficient strain; assay type: cell-based, Pseudomonas aeruginosa
Protocol: Bacterial strains were seeded in 50 mL of Luria-Bertani (LB) broth at OD600 0.05 and grown at 37 °C for 3-4 h until an OD600 of 0.6–0.8 was achieved. Bacterial cells were washed twice with 25 mL of buffer (50 mM sodium phosphate, 0.5% glucose, pH 7, with or without 1 mM Mg^2+), resuspended in 10 mL of the buffer, and then adjusted to an OD600 of 0.4. […] Bacterial suspension (50 μL, OD600 0.4) in buffer was added to the lipopeptide solutions and the rate of substrate hydrolysis was measured at 490 nm.
Activity of F365 and polymyxin B in the efflux inhibition assay.
One of the consequences of disruption/permeabilization of the cytoplasmic membrane by polymyxins is the dissipation of the proton gradient across the cytoplasmic membrane. […]
these compounds are expected to inhibit proton-dependent transport activity across the cytoplasmic membrane including efflux. Efflux activity and its inhibition by F365 was assessed by examining the rates of hydrolysis of a fluorogenic substrate of efflux pumps, Leu-Nap, by intact cells of P. aeruginosa. For these experiments we used two strains of P. aeruginosa, PAM1723 and PAM1626. PAM1723 overexpresses the efflux pump MexAB-OprM and PAM1626 lacks this pump as well as several other pumps that extrude Leu-Nap. […] The rate of production of β-naphthylamine (recorded as an increase in fluorescence) is limited by the rate of entry of Leu-Nap into the cells. […]

[3] = in vivo
Protocol: as §1

[4] = tested on: K. pneumoniae FADDI-KP132; test: MIC, polymyxin-resistant isolate; assay type: cell-based, Klebsiella pneumoniae; details: mcr-1 positive
Protocol: MICs were determined in cation-adjusted Mueller–Hinton broth (CaMHB) by the broth micro-dilution method against ATCC strains and clinical isolates. MICs in the presence of Survanta® were determined as described above against P. aeruginosa ATCC 27853. In the 100 μL of fresh CaMHB containing polymyxins, 10% Survanta® (v/v, 2.5 mg/mL phospholipids) was added. MICs in the presence and absence of Survanta® were compared to determine the effect of binding to lung surfactant on the antibacterial activity of polymyxins.

Molecule	bacterial killing in lung at 24 h vs pre-treatment inoculum [1]	Tukey HSD diff, Pre-treatment minus treated group (Log10 CFU/lung) ([1]; 45mg/kg/d)	Tukey HSD diff, Vehicle minus treated group (Log10 CFU/lung) ([1]; 45mg/kg/d)	Log10 CFU/lung ([1]; 45mg/kg/d)	half-life ([2]; mouse, in vivo, ip, 5 mg/kg) [h]	effect on the rate of Leu-Nap hydrolysis (P. aeruginosa PAM1626)	Free AUC(0-∞) in ELF (estimated fAUCELF) ([3]; mouse, sc, 40 mg/kg) [ng·h/mL]	Total CL ([3]; mouse, sc, 40 mg/kg) [mL/min/kg]	half-life ([3]; mouse, sc, 40 mg/kg) [h]	half-life ([3]; rat, iv, 1 mg/kg) [h]	MIC K. pneumoniae FADDI-KP132 [4] [µg/mL]	further results
CC[C@@H]1NC(=O)[C@@H](CC(C)C)NC(=O)[C@H](CCN)NC(=O)[C@@H](NC(=O)[C@H](CN)NC(=O)[C@@H](NC(=O)[C@H](CCN)NC(=O)c2ccc(Cl)cc2Cl)[C@@H](C)O)CCNC(=O)[C@H]([C@@H](C)O)NC(=O)[C@H](CCN)NC(=O)[C@H](CCN)NC1=O [Lipopeptide F365] (HELM PEPTIDE1{[O=C(c1ccc(Cl)cc1Cl)[*:2]].[Dab].T.[NC[C@H](N[*:1])C(=O)[*:2]].[Dab].[Dab].[dL].[Abu].[Dab].[Dab].T}$PEPTIDE1,PEPTIDE1,5:R3-11:R2$$$V2.0)	did not show any significant killing	-0.4375	2.481	7.09 Log10 CFU/lung and 6.80 Log10 CFU/lung and 6.82 Log10 CFU/lung and 6.79 Log10 CFU/lung	0.3	no effect	86200	7.67	3.39	0.91	8 (≈ 6.9 µM)	bacterial killing in lung at 24 h ([1]; 90 mg/kg/d IP in three divided doses every 8 h): bacterial killing; Tukey HSD diff, Pre-treatment minus treated group (Log10 CFU/lung) ([1]; 90mg/kg/d): 1.005; Tukey HSD diff, Vehicle minus treated group (Log10 CFU/lung) ([1]; 90mg/kg/d): 3.9235; Log10 CFU/lung ([1]; 90mg/kg/d): 5.12 Log10 CFU/lung and 5.34 Log10 CFU/lung and 5.83 Log10 CFU/lung and 5.44 Log10 CFU/lung; Plasma concentration, single mouse ([2]; 5 mg/kg IP, 0.28 h): 6.79; AUC(0-inf) ([2]; mouse, in vivo, ip, 5 mg/kg): 7920 ng·h/mL; AUC(0-inf) ([3]; mouse, sc, 40 mg/kg): 86200 ng·h/mL; Cmax in ELF relative to polymyxin B ([3]; mouse, sc, 40 mg/kg): 3 fold; urinary recovery relative to polymyxin B ([3]; rat): > 4 fold; AUC(0-inf) ([3]; rat, iv, 1 mg/kg): 2400 ng·h/mL; clearance ([3]; rat, iv, 1 mg/kg): 7.67 mL/min/kg
Polymyxin B [reference compound]	did not show any significant killing	-1.2575	1.661	7.47 Log10 CFU/lung and 7.01 Log10 CFU/lung and 7.92 Log10 CFU/lung and 8.38 Log10 CFU/lung	1.40	no effect	10000	8.33	6.70	1.45	8	AUC(0-∞) in ELF ([3]; mouse, sc, 40 mg/kg): 80000 ng·h/mL
